Data published in paper PMC5677366, “Cyclic di-GMP differentially tunes a bacterial flagellar motor through a novel class of CheY-like regulators” (eLife, 2017).
Entries after “also recorded” stand apart in the source; their conditions may differ.

Assays:
[1] = biological target: T1, His-SUMO (Saccharomyces cerevisiae, UniProt Q12306); assay: MST; format: binding
T1 construct: made in house; host or cells: E. coli BL21 (DE3)
Procedure: (§1) MST experiments were carried out in a Monolith NT.115 device using standard treated capillaries (NanoTemper Technologies). Fluorescence changes resulting from thermophoresis were recorded using blue channel optics of the instrument (λex = 470 ± 15 nm, λem = 520 ± 10 nm) for the 30 s period of infrared laser heating at 40% of maximum laser power followed by a 5 s of cooling period. Measurements were performed in a buffer containing 50 mM Tris-HCl, pH 8.0, 100 mM NaCl, 5 mM MgCl2, 1 mM DTT and 0.1% Tween 20. 2'-O-(6-[Fluoresceinyl]aminohexylcarbamoyl)-cyclic diguanosine monophosphate (2’fluo-AHC-c-di-GMP, Biolog, Bremen, Germany) was added to probe the binding affinity of CleD domains. A 16-point 1:1 serial dilution series of proteins was titrated against a fixed concentration (60 nM) of 2’fluo-AHC-c-di-GMP. Data were evaluated in the program ProFit (Quansoft, Zurich, Switzerland) and fitted using the Hill equation.

[2] = biological target: EcCheY-ARR (wild-type ARR of CleD fused to E. coli CheY) (Caulobacter vibrioides, UniProt Q9A3V2); assay: MST; format: binding; details: read-out: apparent Kd
Chain of EcCheY-ARR (wild-type ARR of CleD fused to E. coli CheY) (P0AE67 2-129): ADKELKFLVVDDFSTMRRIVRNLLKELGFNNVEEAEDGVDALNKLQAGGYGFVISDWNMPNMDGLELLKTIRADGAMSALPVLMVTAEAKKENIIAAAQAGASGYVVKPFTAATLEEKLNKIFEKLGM
Chain of EcCheY-ARR (wild-type ARR of CleD fused to E. coli CheY) (Q9A3V2 entry or part of it): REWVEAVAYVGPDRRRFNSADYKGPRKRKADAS
Procedure: as §1

[3] = biological target: His-CleD (aa 19–269) (Caulobacter vibrioides, UniProt Q9A3V2); assay: Microscale thermophoresis (MST); format: binding, Caulobacter crescentus
Chain of His-CleD (aa 19–269) (Q9A3V2 entry or part of it): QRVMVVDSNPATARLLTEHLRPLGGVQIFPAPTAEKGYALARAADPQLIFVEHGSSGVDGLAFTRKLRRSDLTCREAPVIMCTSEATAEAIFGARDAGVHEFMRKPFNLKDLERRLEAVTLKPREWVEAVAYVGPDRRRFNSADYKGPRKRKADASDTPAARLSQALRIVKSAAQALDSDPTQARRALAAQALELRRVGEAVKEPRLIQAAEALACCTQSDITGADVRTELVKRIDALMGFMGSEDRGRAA
Procedure: as §1

[4] = biological target: His-CleD (aa 19–262) (Caulobacter vibrioides, UniProt Q9A3V2); assay: MST; format: binding, Caulobacter crescentus; details: 60 nM ligand; variant lacking part of the CTR
Chain of His-CleD (aa 19–262) (Q9A3V2 entry or part of it): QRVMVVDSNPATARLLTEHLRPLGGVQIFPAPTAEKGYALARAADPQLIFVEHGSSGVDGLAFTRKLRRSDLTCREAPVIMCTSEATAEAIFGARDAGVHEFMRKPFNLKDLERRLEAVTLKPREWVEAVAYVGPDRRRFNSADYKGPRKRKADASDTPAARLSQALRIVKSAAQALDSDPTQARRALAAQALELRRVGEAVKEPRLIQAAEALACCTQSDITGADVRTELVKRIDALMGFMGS
Procedure: as §1

[5] = tested on: His-SUMO R156A ARRCleD; assay: MST; format: binding, Caulobacter crescentus
Procedure: as §1

[6] = tested on: isolated ARR of CleA fused to His-SUMO; assay: MST; format: binding, Caulobacter crescentus
Procedure: as §1

[7] = biological target: His-CleD-rec-ARR (aa 19–174) (Caulobacter vibrioides, UniProt Q9A3V2); assay: MST; format: binding, Caulobacter crescentus
Chain of His-CleD-rec-ARR (aa 19–174) (Q9A3V2 entry or part of it): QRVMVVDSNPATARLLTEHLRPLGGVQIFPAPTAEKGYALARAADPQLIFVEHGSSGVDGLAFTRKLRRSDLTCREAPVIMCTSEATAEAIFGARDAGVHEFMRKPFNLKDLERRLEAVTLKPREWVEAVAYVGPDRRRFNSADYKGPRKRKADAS
Procedure: as §1

[8] = biological target: His-CleD-rec (aa 19–141) (Caulobacter vibrioides, UniProt Q9A3V2); assay: MST; format: binding, Caulobacter crescentus
Chain of His-CleD-rec (aa 19–141) (Q9A3V2 entry or part of it): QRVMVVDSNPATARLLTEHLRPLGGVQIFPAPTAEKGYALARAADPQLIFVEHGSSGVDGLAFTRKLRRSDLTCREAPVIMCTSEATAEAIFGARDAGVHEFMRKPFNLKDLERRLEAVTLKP
Procedure: as §1

[9] = biological target: His-SUMO R169A ARRCleD (Caulobacter vibrioides, UniProt Q9A3V2, R169A); assay: MST; format: binding, Caulobacter crescentus
Procedure: as §1

[10] = biological target: T2, His-CheY (Escherichia coli, UniProt P0AE67); assay: MST; format: binding, E. coli
T2 construct: made in house; host or cells: E. coli BL21 (DE3)
T2 sequence (P0AE67 whole entry): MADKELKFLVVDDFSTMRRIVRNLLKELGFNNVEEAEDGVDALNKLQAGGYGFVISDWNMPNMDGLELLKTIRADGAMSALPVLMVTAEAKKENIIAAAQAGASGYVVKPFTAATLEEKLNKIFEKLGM
Procedure: as §1

[11] = biological target: EcCheY-ARR with R156A mutant ARR (Caulobacter vibrioides, UniProt Q9A3V2, R156A); assay: MST; format: binding, E. coli; details: read-out: apparent Kd
Chain of EcCheY-ARR with R156A mutant ARR (P0AE67 2-129, further chain): as the sequence (P0AE67 2-129) above
Procedure: as §1

[12] = biological target: T3, StrepII-CleD (Caulobacter vibrioides, UniProt Q9A3V2); assay: UV cross-linking competition with non-labeled nucleotides; format: binding, Caulobacter crescentus; details: 1 µM StrepII-CleD, 0.25 µM 33P-labelled c-di-GMP
T3 sequence (Q9A3V2 entry or part of it): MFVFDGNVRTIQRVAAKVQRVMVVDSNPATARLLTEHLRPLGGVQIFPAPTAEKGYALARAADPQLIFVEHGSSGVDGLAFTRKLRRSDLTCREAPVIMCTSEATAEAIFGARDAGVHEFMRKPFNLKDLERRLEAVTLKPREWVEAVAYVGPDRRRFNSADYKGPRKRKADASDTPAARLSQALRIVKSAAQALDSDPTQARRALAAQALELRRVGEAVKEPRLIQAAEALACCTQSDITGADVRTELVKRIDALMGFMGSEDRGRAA
Procedure: Synthesis of radiolabeled c-di-GMP using YdeH and UV light-induced cross-linking experiments in conical 96-well plates (Greiner Bio-One) were performed as described recently ([Steiner et al., 2013]; [Christen et al., 2005]). […] As a control BSA was included. For competition experiments unlabeled nucleotides were incubated with the protein for 15 min prior the addition of c-[^33P] -di-GMP. The 96-well plates were then UV-irradiated at 254 nm for 20 min using a Bio-Link crosslinker (Vilber Lourmat, France). After addition of 5 μl loading dye and boiling for 5 min the samples were subjected to SDS-PAGE. Proteins were analyzed by Coomassie staining and autoradiography. Band intensities were quantified using the ImageJ64 software and the data were fitted using GraphPad Prism version 5.04 for Windows (GraphPad Software, San Diego California USA). The Kd was calculated by non-linear regression using the ‘One site – Total binding’ equation.

[13] = biological target: T3, StrepII-CleD; assay: UV cross-linking with radiolabeled c-di-GMP; format: binding, Caulobacter crescentus
Procedure: Synthesis of radiolabeled c-di-GMP using YdeH and UV light-induced cross-linking experiments in conical 96-well plates (Greiner Bio-One) were performed as described recently ([Steiner et al., 2013]; [Christen et al., 2005]). Briefly, 2 μM protein was incubated for 10 min at room temperature with c-[^33P]-di-GMP in a total volume of 20 μl using PBS as buffer. As a control BSA was included. For competition experiments unlabeled nucleotides were incubated with the protein for 15 min prior the addition of c-[^33P] -di-GMP. The 96-well plates were then UV-irradiated at 254 nm for 20 min using a Bio-Link crosslinker (Vilber Lourmat, France). After addition of 5 μl loading dye and boiling for 5 min the samples were subjected to SDS-PAGE. Proteins were analyzed by Coomassie staining and autoradiography. Band intensities were quantified using the ImageJ64 software and the data were fitted using GraphPad Prism version 5.04 for Windows (GraphPad Software, San Diego California USA). The Kd was calculated by non-linear regression using the ‘One site – Total binding’ equation.

[14] = biological target: His-CleD_R113A-GFP (Caulobacter vibrioides, UniProt Q9A3V2, R113A); assay: ITC with R113A mutant; format: binding, Caulobacter crescentus
Procedure: (§2) ITC experiments were performed on a VP-ITC MicroCalorimeter (MicroCal, Northampton, MA, USA). Protein samples, c-di-GMP and buffer (50 mM Tris-HCl, pH 8.0, 100 mM NaCl, 5 mM MgCl2, 1 mM DTT) were degassed for 15 min prior to filling into sample cell and syringe. The sample cell contained 7.4 µM of His-CleD-GFP and the syringe contained 69.7 µM of cdG. The concentrations were determined in a spectrophotometer using a cuvette with 1 cm path length. All experiments were carried out at 10 °C with 30 injections (10 µl each) with a 250 s interval. Stir rate was 300 rpm. The data were evaluated using ITC Data Analysis in ORIGIN (MicroCal) provided by the manufacturer. The area under each peak was integrated and fitted using the built-in one-site model by non-linear least squares regression analysis.

[15] = biological target: T4, CleD-GFP (Caulobacter vibrioides, UniProt Q9A3V2); assay: 1H-NMR Jump-return imino proton spectra; format: binding, Caulobacter crescentus; details: difference spectrum with and without c-di-GMP, four imino H1 resonances
Procedure: NMR spectra were recorded at 298 K on Bruker DRX 600, and DRX 900 NMR spectrometers equipped with TXI and TCI probe heads, respectively. The one dimensional NMR spectra were recorded with a Jump-return echo sequence ([Sklenár et al., 1987]) optimized for resonances at around 12 ppm. For the complex His-CleD-GFP·c-di-GMP and apo His-CleD-GFP 16384 scans were recorded. The NMR samples were prepared as follows. The sample of apo His-CleD-GFP (30 μM) was prepared in 100 mM NaCl, 20 mM sodium phosphate buffer at pH 6.5, 0.01% NaN3 (w/v), and 5% (v/v) D2O as sample volume of 250 μL. Complex CleD-GFP·c-di-GMP: the ligand was titrated to the apo His-CleD-GFP sample from a 20 mM stock solution in twofold excess.

[16] = tested on: R156A mutant variant of CleD-GFP; assay: ITC with R156A mutant; format: binding, Caulobacter crescentus
Procedure: as §2

[17] = biological target: T4, CleD-GFP; assay: Isothermal titration calorimetry (ITC); format: binding, Caulobacter crescentus; details: ITC at 10°C
Procedure: as §2

[18] = tested on: CleD; assay: 1H-15N HSQC NMR of 15N-CleD with FliM peptides; format: binding, Caulobacter crescentus
Procedure: The standard two-dimensional spectra ^1H-^15N HSQC of His-CleD with or without peptides were performed on a ^15N isotope labeled His-CleD. The His-CleD (400 µM) sample was in 20 mM sodium phosphate buffer at pH 7.0, 200 mM NaCl, 1 mM MgCl2, 5 mM 2-Mercaptoethanol, 0.02% NaN3 (w/v), and 5% (v/v) D2O with a sample volume of 270 μL. c-di-GMP was titrated to the protein sample in 2.5-fold excess. The FliM peptide from residue Ala47 to Gly62 contains an additional Trp at the N-terminus to measure concentration and to increase solubility (WASERILNQDEIDSLLG). As the corresponding ID57_WA peptide contains a Trp we used the following sequence ASERILNQDEWASLLG. Both peptides were purchased from JPT Peptide Technologies, and dissolved in 200 mM NaCl, 20 mM sodium phosphate buffer at pH 7.0, 1 mM MgCl2, 5 mM β-Mercaptoethanol, 0.02%NaN3 (w/v), and 5% (v/v) D2O. With homonuclear 2D-TOCSY and 2D-NOESY experiments the peptide proton resonances were assigned. It was confirmed, that both peptides were stable in this buffer and unfolded (data not shown). The spectrum of the purified CleD protein was recorded in the same buffer as the FliM peptides.

T1 sequence (Q12306 whole entry): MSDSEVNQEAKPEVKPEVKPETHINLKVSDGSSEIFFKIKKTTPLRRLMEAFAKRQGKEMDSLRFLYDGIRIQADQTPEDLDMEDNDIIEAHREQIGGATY

2'-O-(6-[Fluoresceinyl]aminohexylcarbamoyl)-cyclic diguanosine monophosphate [flr-cdG]
binding (in words) [1]: not SUMO itself were able to bind flr-cdG | Kd [2]: 14800 nM | Kd ([3]; 60 nM ligand): 1200 nM | Kd relative to affinities determined for c-di-GMP itself ([3]; full-length CleD and variant lacking part of the CTR): roughly 10 fold | Kd [4]: 1300 nM | binding (in words) [5]: strongly reduced binding; also recorded: completely abolished | binding (in words) [6]: failed to bind | dissociation constant relative to full-length protein [7]: 5 fold | Kd ([7]; 60 nM ligand): 6200 nM | dissociation constant relative to full-length protein [8]: 40 fold | Kd ([8]; 60 nM ligand): 41700 nM | reduction of binding relative to wild-type ARR [9]: about 5 fold | binding (in words) [10]: failed to bind | Kd [11]: 471000 nM

Nc1nc2c(ncn2[C@@H]2O[C@H](COP(=O)(O)OP(=O)(O)OP(=O)(O)O)[C@@H](O)[C@H]2O)c(=O)[nH]1 [GTP]
concentration required for a similar reduction of 33P-labelled c-di-GMP binding, relative to non-labeled c-di-GMP [12]: 1000 fold

Nc1nc2c(ncn2[C@@H]2O[C@@H]3COP(=O)(O)O[C@H]4[C@@H](O)[C@H](n5cnc6c(=O)[nH]c(N)nc65)O[C@@H]4COP(=O)(O)O[C@H]3[C@H]2O)c(=O)[nH]1 [c-di-GMP, Cyclic di-GMP]
Kd [13]: 212 nM | binding (in words) ([13]; purified Strep-tagged CleD, radiolabeled c-di-GMP): high affinity binding in the nanomolar range | Kd [14]: 221 nM | increase of the Kd as compared to wild-type CleD ([14]; ITC): 3 fold | competition with labeled probe for binding (in words) [12]: effectively compete; also recorded: equimolar amounts of non-labeled c-di-GMP reduced binding | binding stoichiometry [15]: two molecules of c-di-GMP are bound to one CleD protomer; also recorded: one c-di-GMP dimer to one protein monomer | binding (in words) [16]: completely abolished | Kd [17]: 86 nM

Nc1nc2c(ncn2[C@@H]2O[C@H](COP(=O)(O)O[C@H]3[C@@H](O)[C@H](n4cnc5c(=O)[nH]c(N)nc54)O[C@@H]3COP(=O)(O)O)[C@@H](O)[C@H]2O)c(=O)[nH]1 [pGpG]
concentration required for a similar reduction of 33P-labelled c-di-GMP binding, relative to non-labeled c-di-GMP [12]: 1000 fold

ASERILNQDEWASLLG [FliM_ID57WA mutant peptide, FliM residues 47–62 peptide with ID57WA substitution]
HSQC spectrum change (in words) ([18]; with c-di-GMP): indistinguishable from the spectrum recorded for CleD alone

WASERILNQDEIDSLLG [FliM wild-type peptide, FliM peptide from residue Ala47 to Gly62 with an additional Trp at the N-terminus]
number of CleD resonances with shift changes ([18]; in the presence of c-di-GMP, peptide in two-fold excess): approximately 10 resonances | HSQC spectrum change (in words) ([18]; without c-di-GMP): indistinguishable from the spectrum recorded for CleD alone
